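Five concentrations, 48 hours, 96-well plates. Here, GI50 denotes the concentration required for 50% inhibition of growth. TGI: concentration producing complete growth inhibition.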
Columns and labels:
Assay in all cases: DTP human tumour cell line panel, 48 h
[1] = system: CCRF-CEM leukemia
[2] = system: COLO 205 colon
[3] = system: HCT-15 colon
[4] = system: MALME-3M melanoma
[5] = system: OVCAR-4 ovarian
[6] = system: SF-295 CNS
[7] = system: U251 CNS
[8] = system: UACC-257 melanoma
[9] = system: UO-31 renal

Structure (SMILES): Cc1ccc(C(=O)NC(C)C)cc1-c1ccc(C(=O)NCC2CC2)cc1
- GI50 [1]: > 25 µM
- TGI [1]: > 25 µM
- GI50 [2]: > 25 µM
- TGI [2]: > 25 µM
- GI50 [3]: > 25 µM
- TGI [3]: > 25 µM
- GI50 [4]: > 25 µM
- TGI [4]: > 25 µM
- GI50 [5]: > 25 µM
- TGI [5]: > 25 µM
- GI50 [6]: > 25 µM
- TGI [6]: > 25 µM
- GI50 [7]: > 25 µM
- TGI [7]: > 25 µM
- GI50 [8]: > 25 µM
- TGI [8]: > 25 µM
- GI50 [9]: > 25 µM
- TGI [9]: > 25 µM

Structure (SMILES): CCOC(=S)SSSC(=S)OCC
- TGI [1]: > 100 µM
- TGI [2]: > 100 µM
- TGI [3]: 46.8 µM
- TGI [4]: > 100 µM
- TGI [6]: > 100 µM
- TGI [7]: > 100 µM
- TGI [8]: > 100 µM

Structure (SMILES): CS(=O)(=O)c1ccc(-n2nc(C(F)(F)F)cc2OC2CCCC2)cc1
- GI50 [1]: 38.3 µM
- TGI [1]: > 100 µM
- GI50 [2]: 29 µM
- TGI [2]: 81.7 µM
- GI50 [3]: 30.6 µM
- TGI [3]: 80.1 µM
- GI50 [5]: 30.3 µM
- TGI [5]: > 100 µM
- GI50 [6]: 37.4 µM
- TGI [6]: > 100 µM
- GI50 [7]: 22.1 µM
- TGI [7]: 75 µM
- GI50 [8]: 40.1 µM
- TGI [8]: > 100 µM
- GI50 [9]: > 100 µM
- TGI [9]: > 100 µM

Structure (SMILES): NC(=O)NS(=O)(=O)c1ccc(N2N=C(C(F)(F)F)CC2c2cc(C(F)(F)F)cc(C(F)(F)F)c2)cc1 (configuration not stated)
- GI50 [1]: 2.94 µM
- TGI [1]: 19.9 µM
- GI50 [2]: 2.96 µM
- TGI [2]: 12 µM
- GI50 [3]: 2.99 µM
- TGI [3]: 13.6 µM
- GI50 [4]: 13.9 µM
- TGI [4]: 39.9 µM
- GI50 [5]: 2.9 µM
- TGI [5]: 12.8 µM
- GI50 [7]: 3.94 µM
- TGI [7]: 15.2 µM
- GI50 [8]: 2.58 µM
- TGI [8]: 7.18 µM
- GI50 [9]: 0.0862 µM
- TGI [9]: 13.2 µM

Structure (SMILES): C#CCNC(=O)c1cccc2c1cc(C)n2-c1nc2c(c(NCc3ccccc3)n1)CCCC2
- GI50 [1]: 0.235 µM
- TGI [1]: 0.945 µM
- GI50 [2]: 0.0191 µM
- TGI [2]: 0.0382 µM
- GI50 [3]: 0.0197 µM
- TGI [3]: 0.0474 µM
- GI50 [4]: 0.00311 µM
- TGI [4]: 0.0114 µM
- GI50 [5]: 0.022 µM
- TGI [5]: 0.0709 µM
- GI50 [6]: 0.0175 µM
- TGI [6]: 0.0418 µM
- GI50 [7]: 0.0254 µM
- TGI [7]: 0.0646 µM
- GI50 [9]: 0.0242 µM
- TGI [9]: 0.0678 µM

Structure (SMILES): CC1(C)OC2=C(CC1Br)C(=O)C(=O)c1ccccc12 (configuration not stated)
- GI50 [1]: 3.56 µM
- TGI [1]: > 100 µM
- GI50 [2]: 1.89 µM
- TGI [2]: 3.39 µM
- GI50 [4]: 1.8 µM
- TGI [4]: 3.52 µM
- GI50 [5]: 1.67 µM
- TGI [5]: 3.03 µM
- GI50 [7]: 1.87 µM
- TGI [7]: 3.87 µM
- GI50 [8]: 1.76 µM
- TGI [8]: 3.27 µM
- GI50 [9]: 1.35 µM
- TGI [9]: 2.76 µM

Structure (SMILES): Cc1cc(-c2cnn3c(NCC4CC(C)(O)C4)cc(Oc4cccnc4)nc23)ccc1C(=O)NC1CC1 (configuration not stated)
- GI50 [1]: 0.259 µM
- TGI [1]: > 100 µM
- GI50 [2]: 1.06 µM
- TGI [2]: > 100 µM
- GI50 [3]: 0.706 µM
- TGI [3]: > 100 µM
- GI50 [6]: 3.28 µM
- TGI [6]: > 100 µM
- GI50 [7]: 4.18 µM
- TGI [7]: > 100 µM
- GI50 [8]: > 100 µM
- TGI [8]: > 100 µM
- GI50 [9]: 2.02 µM
- TGI [9]: > 100 µM

Structure (SMILES): CC(C)(CO)N1CCN(C(=S)Nc2ccccc2)CC1
- TGI [2]: > 100 µM
- TGI [3]: > 100 µM
- TGI [4]: > 100 µM
- TGI [5]: > 100 µM
- TGI [6]: > 100 µM
- TGI [7]: > 100 µM
- TGI [8]: > 100 µM
- TGI [9]: > 100 µM

Structure (SMILES): CN(C)CCNC(=O)c1cccc2ccc(-c3ccncc3)nc12
- TGI [1]: 15.5 µM
- TGI [2]: 7.26 µM
- TGI [3]: 11.9 µM
- TGI [5]: 15 µM
- TGI [6]: 14.8 µM
- TGI [7]: 8.75 µM
- TGI [8]: 6.66 µM
- TGI [9]: 5.37 µM

Structure (SMILES): CCCCCCCC(=O)OCC/C=C/C1OC1C1OC(=O)/C=C\C=C\c2nc(oc2C)/C=C(/C)CCC2OC2C1OC(=O)NC(C)=O (configuration not stated)
- GI50 [1]: 0.0651 µM
- TGI [1]: 3.98 µM
- GI50 [2]: 0.0581 µM
- TGI [2]: 0.193 µM
- GI50 [3]: 0.0558 µM
- TGI [3]: 8.88 µM
- GI50 [5]: 0.0766 µM
- TGI [5]: 2.21 µM
- GI50 [6]: 0.00904 µM
- TGI [6]: 0.0548 µM
- GI50 [7]: 0.0497 µM
- TGI [7]: 3.11 µM
- GI50 [8]: 0.0301 µM
- TGI [8]: 0.125 µM

Structure (SMILES): CCC[CH2][Sn]1([CH2]CCC)[O]C(=O)CN=Cc2c(ccc3ccccc23)[O]1
- GI50 [2]: 0.401 µM
- TGI [2]: 1.47 µM
- GI50 [3]: 0.491 µM
- TGI [3]: 1.75 µM
- GI50 [4]: 0.134 µM
- TGI [4]: 0.464 µM
- GI50 [5]: 1 µM
- TGI [5]: 2.19 µM
- GI50 [6]: 0.794 µM
- TGI [6]: 2.08 µM
- GI50 [7]: 0.351 µM
- TGI [7]: 1.2 µM
- GI50 [8]: 0.0434 µM
- TGI [8]: 0.285 µM
- GI50 [9]: 0.635 µM
- TGI [9]: 1.92 µM

Structure (SMILES): COc1ccc(NC(=O)CC(=O)N/N=C/c2ccc(N(CCC#N)S(C)(=O)=O)cc2)cc1
- TGI [1]: > 100 µM
- TGI [2]: > 100 µM
- TGI [3]: > 100 µM
- TGI [4]: > 100 µM
- TGI [5]: > 100 µM
- TGI [6]: > 100 µM
- TGI [7]: > 100 µM
- TGI [9]: > 100 µM

Structure (SMILES): CC(C)(C)c1cc(CCC(=O)Nc2ccc(Cl)cc2)nc(NC#N)n1
- TGI [1]: > 100 µM
- TGI [2]: > 100 µM
- TGI [3]: > 100 µM
- TGI [5]: > 100 µM
- TGI [6]: > 100 µM
- TGI [7]: > 100 µM
- TGI [8]: > 100 µM
- TGI [9]: > 100 µM

Structure (SMILES): O=C(N/C(=C\c1cccc([N+](=O)[O-])c1)c1nc2ccc([N+](=O)[O-])cc2[nH]1)c1ccccc1
- TGI [1]: 87.6 µM
- TGI [2]: > 100 µM
- TGI [3]: > 100 µM
- TGI [4]: > 100 µM
- TGI [5]: 66.1 µM
- TGI [6]: > 100 µM
- TGI [7]: > 100 µM
- TGI [9]: 58.9 µM

Structure (SMILES): CCOC1Oc2ccc(C)cc2C(=O)/C1=C\Nc1ccc(C(N)=O)cc1 (configuration not stated)
- GI50 [1]: 20.3 µM
- TGI [1]: 65.3 µM
- GI50 [2]: 8.52 µM
- TGI [2]: > 100 µM
- GI50 [3]: 11.4 µM
- TGI [3]: 30.6 µM
- GI50 [5]: 99.8 µM
- TGI [5]: > 100 µM
- GI50 [6]: 18.1 µM
- TGI [6]: 45.9 µM
- GI50 [7]: 13.2 µM
- TGI [7]: 34.2 µM
- GI50 [8]: 25.5 µM
- TGI [8]: 52.3 µM
- GI50 [9]: 21.2 µM
- TGI [9]: 59.7 µM

Structure (SMILES): O=C(O)CCSC(=O)Nc1ccc([N+](=O)[O-])cc1
- TGI [1]: > 100 µM
- TGI [2]: > 100 µM
- TGI [3]: > 100 µM
- TGI [5]: > 100 µM
- TGI [6]: > 100 µM
- TGI [7]: > 100 µM
- TGI [8]: > 100 µM
- TGI [9]: > 100 µM

Structure (SMILES): CCN(CC)C(c1ccc(N(C)C)cc1)C(c1ccc(N(C)C)cc1)N(CC)CC (configuration not stated)
- TGI [1]: > 73 µM
- TGI [2]: > 73 µM
- TGI [3]: > 73 µM
- TGI [4]: 50.3 µM
- TGI [5]: > 73 µM
- TGI [6]: > 73 µM
- TGI [7]: > 73 µM
- TGI [8]: > 73 µM

Structure (SMILES): COc1ccc2nc3c(C(=O)NCCN(C)C)cccc3nc2c1
- TGI [1]: > 100 µM
- TGI [2]: 22.9 µM
- TGI [3]: 16.6 µM
- TGI [5]: 29.6 µM
- TGI [6]: 39.1 µM
- TGI [7]: 29.5 µM
- TGI [8]: 19.9 µM
- TGI [9]: 47.9 µM

Structure (SMILES): COc1cc(C(=O)CBr)c(OC)cc1C
- TGI [1]: > 100 µM
- TGI [2]: > 100 µM
- TGI [3]: > 100 µM
- TGI [4]: > 100 µM
- TGI [6]: > 100 µM
- TGI [7]: > 100 µM
- TGI [8]: > 100 µM
- TGI [9]: > 100 µM

Structure (SMILES): CCc1ccccc1NC(=O)C1=C(C)NC(C)=C(C(=O)Nc2ccccc2CC)C1c1ccc2c(c1)OCO2
- TGI [1]: 84.4 µM
- TGI [2]: > 100 µM
- TGI [4]: 99 µM
- TGI [5]: 92 µM
- TGI [6]: > 100 µM
- TGI [7]: 97.1 µM
- TGI [8]: > 100 µM
- TGI [9]: 70.5 µM
